Like-named read-outs stand apart in the source and are kept apart here.
Experiments:
[1] = system: HIV-1 infection of TZM-bl cells; test: HIV-1 infectivity enhancement assay, β-galactosidase luminescence; format: cell-based; conditions: for Rel-EFC: infection relative to EF-C (QCKIKQIINMWQ = 1); for Log10 Infection Rel EFC: log10 of infection relative to EF-C; for Log Infectivity: Log10 infection relative to EF-C, TZM-bl cells; for Log10 Infection Rel EF-C: HIV-1 infection of TZM-bl cells; for Abs. Inf.: absolute infection signal, HIV-1 on TZM-bl cells, β-galactosidase luminescence; for Rel-to EFC (Feb-2021): n-fold infectivity relative to EF-C
[2] = format: physicochemical; set-up: key to Fibril / Fibril Formation / TEM 2cat / Fibril: 1 = fibrils present; 0 non-fibrillar structures; conditions: for Fibril / Fibril Formation: 1 mg/mL, uranyl acetate stain, qualitative
[3] = Zeta-potential measurement; format: physicochemical
Summary of the method: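 Surface charge of aggregated peptides: 1 mg/mL solutions in PBS (pH 7.4) incubated 1 d at RT, diluted into 1 mM KCl just before reading. Electrophoretic mobility converted to zeta potential by the Smoluchowski formula; triplicate measurements from two separate experiments averaged.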

[4] = Turbidity, derived count rate of scattered light; format: physicochemical; conditions: for Count Rate: derived count rate of scattered light (turbidity); for Log10 Count Rate: turbidity, derived count rate of scattered light, data of Figure 2D
[5] = Fig. S7 panel A (plotted against β-sheet content), asymmetric std dev errors
[6] = Fig. S7 panel B (plotted against CR), rounded to two decimals, asymmetric std dev errors
[7] = Log10 of infection rate relative to EF-C, Figure 3A source data
[8] = infection rate relative to EF-C, log10, data of Figure 2D
[9] = infection rate relative to EF-C, log10, source data of Figure 2C
[10] = Log10 of infection relative to EF-C, all peptides of FigS16
[11] = log10 of HIV-1 infection of TZM-bl cells relative to EF-C (EF-C = 0)
[12] = TEM, 1 = fibrils present, 0 = non-fibrillar
[13] = TEM, 1 = fibrils present, 0 = non-fibrillar structures
[14] = category: fibrils present or non-fibrillar
[15] = zeta-potential of peptide, source data of Figure 2C
[16] = zeta-potential of the peptide assemblies, mean, Figure 3A source data

## QCKFKFQFNM
[1]; 1.3 µM peptide
  Rel-EFC: 0,51
  Log10 Infection Rel EFC: -0,29
[1]; [5]
  Log Infectivity: -0.2906
[1]; [6]
  Log Infectivity: -0.29
[1]; [7]
  Log10 Infection Rel EF-C: -0.29
[1]; [8]
  Log10 Infection Rel EF-C: -0.2906
[1]; [9]
  Log10 Infection Rel EF-C: -0.2906
[1]; [10]
  Log10 of Rel to EFC (Feb2021): -0.29
[1]
  Abs. Inf.: 16353.33333
[1]; [11]
  Log10 Inf. rel. to EF-C: -0.2906
[2]; Fig S10 panel D
  TEM 2cat: 1
[2]; Fig S10 panel E
  Fibril: 1
[2]; TEM
  Fibril / Fibril Formation: 1
[2]; [12]
  Fibril: 1
[2]; [13]
  Fibril: 1
[2]; [14]
  TEM 2cat: 1
[3]
  Zeta-Pot.: 15.7
[3]; [15]
  Zeta-Potential / mV: 16.1 mV
[3]; [16]
  Zeta-Potential / mV: 15.7 mV
[4]
  Count Rate: 3669.6
  Log10 Count Rate: 3.565

## QCKFKFQFNMWQ
[1]; 1.3 µM peptide
  Rel-EFC: 0,62
  Log10 Infection Rel EFC: -0,21
[1]; [5]
  Log Infectivity: -0.2086
[1]; [6]
  Log Infectivity: -0.21
[1]; [7]
  Log10 Infection Rel EF-C: -0.21
[1]; [8]
  Log10 Infection Rel EF-C: -0.2086
[1]; [9]
  Log10 Infection Rel EF-C: -0.2086
[1]; [10]
  Log10 of Rel to EFC (Feb2021): -0.21
[1]
  Abs. Inf.: 19753.33333
[1]; [11]
  Log10 Inf. rel. to EF-C: -0.2086
[2]; Fig S10 panel D
  TEM 2cat: 1
[2]; Fig S10 panel E
  Fibril: 1
[2]; TEM
  Fibril / Fibril Formation: 1
[2]; [12]
  Fibril: 1
[2]; [13]
  Fibril: 1
[2]; [14]
  TEM 2cat: 1
[3]
  Zeta-Pot.: 21.07
[3]; [15]
  Zeta-Potential / mV: 16.85 mV
[3]; [16]
  Zeta-Potential / mV: 21.07 mV
[4]
  Count Rate: 1208
  Log10 Count Rate: 3.082

## QCKIKIQI
[1]; 1.3 µM peptide
  Rel-EFC: 0,11
  Log10 Infection Rel EFC: -0,95
[1]; [5]
  Log Infectivity: -0.9508
[1]; [7]
  Log10 Infection Rel EF-C: -0.95
[1]; [8]
  Log10 Infection Rel EF-C: -0.9508
[1]; [9]
  Log10 Infection Rel EF-C: -0.9508
[1]; [10]
  Log10 of Rel to EFC (Feb2021): -0.95
[1]
  Abs. Inf.: 3577
[1]; [11]
  Log10 Inf. rel. to EF-C: -0.9508
[2]; Fig S10 panel D
  TEM 2cat: 1
[2]; TEM
  Fibril / Fibril Formation: 1
[2]; [12]
  Fibril: 1
[2]; [13]
  Fibril: 1
[2]; [14]
  TEM 2cat: 1
[3]
  Zeta-Pot.: 9.52
[3]; [15]
  Zeta-Potential / mV: 10.99 mV
[3]; [16]
  Zeta-Potential / mV: 9.52 mV
[4]
  Count Rate: 12426.83333
  Log10 Count Rate: 4.094

## QCKIKIQINMWQ
[1]; 1.3 µM peptide
  Rel-EFC: 1,04
  Log10 Infection Rel EFC: 0,02
[1]; [5]
  Log Infectivity: 0.01546
[1]; [6]
  Log Infectivity: 0.02
[1]; [7]
  Log10 Infection Rel EF-C: 0.02
[1]; [8]
  Log10 Infection Rel EF-C: 0.01546
[1]; [9]
  Log10 Infection Rel EF-C: 0.01546
[1]; [10]
  Log10 of Rel to EFC (Feb2021): 0.02
[1]
  Abs. Inf.: 21221.11111
[1]; [11]
  Log10 Inf. rel. to EF-C: 0.01546
[2]; Fig S10 panel D
  TEM 2cat: 1
[2]; Fig S10 panel E
  Fibril: 1
[2]; TEM
  Fibril / Fibril Formation: 1
[2]; [12]
  Fibril: 1
[2]; [13]
  Fibril: 1
[2]; [14]
  TEM 2cat: 1
[3]
  Zeta-Pot.: 11.73
[3]; [15]
  Zeta-Potential / mV: 11.38 mV
[3]; [16]
  Zeta-Potential / mV: 11.73 mV
[4]
  Count Rate: 8271
  Log10 Count Rate: 3.918

## QCKIKQII
[1]; 1.3 µM peptide
  Rel-EFC: 0,01
  Log10 Infection Rel EFC: -2,19
[1]; [5]
  Log Infectivity: -2.189
[1]; [7]
  Log10 Infection Rel EF-C: -2.19
[1]; [8]
  Log10 Infection Rel EF-C: -2.189
[1]; [9]
  Log10 Infection Rel EF-C: -2.189
[1]
  Abs. Inf.: 206.7
[1]; [11]
  Log10 Inf. rel. to EF-C: -2.189
[2]; Fig S10 panel D
  TEM 2cat: 1
[2]; FigS12 panel A, fibril category by TEM
  TEM 2cat: 1
[2]; FigS12 panel B, TEM
  Fibril: 1
[2]; TEM
  Fibril / Fibril Formation: 1
[2]; [12]
  Fibril: 1
[2]; [13]
  Fibril: 1
[3]
  Zeta-Pot.: 11
[3]; [15]
  Zeta-Potential / mV: 9.183 mV
[3]; [16]
  Zeta-Potential / mV: 11 mV
[4]
  Count Rate: 301
  Log10 Count Rate: 2.479

## QCKIKQIINM
[1]; 1.3 µM peptide
  Rel-EFC: 0,35
  Log10 Infection Rel EFC: -0,46
[1]; [5]
  Log Infectivity: -0.4555
[1]; [7]
  Log10 Infection Rel EF-C: -0.46
[1]; [8]
  Log10 Infection Rel EF-C: -0.4555
[1]; [9]
  Log10 Infection Rel EF-C: -0.4555
[1]; [10]
  Log10 of Rel to EFC (Feb2021): -0.46
[1]
  Abs. Inf.: 11186.66667
[1]; [11]
  Log10 Inf. rel. to EF-C: -0.4555
[2]; Fig S10 panel D
  TEM 2cat: 1
[2]; TEM
  Fibril / Fibril Formation: 1
[2]; [12]
  Fibril: 1
[2]; [13]
  Fibril: 1
[2]; [14]
  TEM 2cat: 1
[3]
  Zeta-Pot.: 10.4
[3]; [15]
  Zeta-Potential / mV: 9.992 mV
[3]; [16]
  Zeta-Potential / mV: 10.4 mV
[4]
  Count Rate: 20551.06667
  Log10 Count Rate: 4.313

## QCKIKQIINMWQ [reference compound]
[1]; 1.3 µM peptide
  Rel-EFC: 1
  Log10 Infection Rel EFC: 0
[1]; 1.3 µM peptide, listed as EF-C
  n-fold infectivity enhancement compared to virus-only infectivity: 42 ± 7
[1]; Feb2021, figures match the 1.3 µM column
  Absolute Infectivity / RLU /s (Feb2021): 21312.22222 RLU /s
[1]; Feb2021, infectivity relative to virus only
  n-fold to virus (Feb2021): 42.02
[1]; Feb2021
  Rel-to EFC (Feb-2021): 1
[1]; Feb2021 run, infectivity n-fold relative to virus alone
  n-fold to virus (Feb2021): 42.02
[1]; Feb2021 run, log10 of infectivity relative to EF-C
  Log10 of Rel to EFC (Feb2021): 0
[1]; Feb2021 run
  Rel-to EFC (Feb-2021): 1
[1]; Fig S8 panels B, D, infectivity enhancement relative to EF-C
  Rel-to EFC: 1
[1]; Fig S8 panels B, D, infectivity n-fold relative to virus alone
  n-fold to virus: 42.02
[1]; [5]
  Log Infectivity: 0
[1]; [6]
  Log Infectivity: 0
[1]; [7]
  Log10 Infection Rel EF-C: 0
[1]; [8]
  Log10 Infection Rel EF-C: 0
[1]; [9]
  Log10 Infection Rel EF-C: 0
[1]; [10]
  Log10 of Rel to EFC (Feb2021): 0
[1]
  Abs. Inf.: 21312.22222
[1]; infectivity class (low / medium / high) of the peptide in the sequence-pattern analysis, Fig. S22-A4, class limits not given
  infectivity: high
[1]; [11]
  Log10 Inf. rel. to EF-C: 0
[1]; log10 of HIV-1 infection of TZM-bl cells relative to EF-C, Fig S15 source data, asymmetric std dev errors
  Log10 Inf. rel. to EF-C: 0
[1]; peptide 0.26 µM, mean of n = 3, Figure 7A
  Abs Infection at 0.26µM: 39053.33333
[1]; peptide 1.3 µM, mean of n = 3, Figure 7A
  Abs Infection at 1.3 µM: 101036.6667
[1]; peptide 6.5 µM, mean of n = 3, Figure 7A
  Abs Infection at 6.5 µM: 141063.3333
[2]; Fig S10 panel D
  TEM 2cat: 1
[2]; Fig S10 panel E
  Fibril: 1
[2]; STD prep
  TEM: 1= fibrils, 0= aggregates (micelle), 0.5 = aggregates and fibrils, -1 = nothing obersved, STD prep: 0.5
[2]; TEM
  Fibril / Fibril Formation: 1
[2]; [12]
  Fibril: 1
[2]; [13]
  Fibril: 1
[2]; [14]
  TEM 2cat: 1
[3]
  Zeta Pot. / mV: 6.643 mV
  Zeta category ( +1 = if > 4 mV;-1 = if < -4 mV; 0 = -4mV to 4 mV): 1 (+1 = if > 4 mV)
  Zeta-Pot.: 6.643
[3]; category from zeta potential
  Zeta category ( +1 = if > 4 mV;-1 = if < -4 mV; 0 = -4mV to 4 mV): 1 (+1 = if > 4 mV)
[3]; mean, Std Zeta in next column
  Zeta Pot. / mV: 6.643 mV
[3]; mean, Std in separate column
  Zeta Pot. / mV: 6.643 mV
[3]; zeta potential of peptide, Fig S15 source data
  Zeta-pot. / mV: 6.643 mV
[3]; [15]
  Zeta-Potential / mV: 7.192 mV
[3]; [16]
  Zeta-Potential / mV: 6.64 mV
[4]
  Count Rate: 2602
  Log10 Count Rate: 3.415
